From ChEMBL document CHEMBL1201862, “PubChem BioAssay data set” (2004)
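Interpolation was linear, between the two tested concentrations surrounding the appropriate level; five concentrations were tested over 48 hours in 96-well plates. GI50 marks 50% less growth.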 Active and inactive are the calls of the source. No stated cut-off is given here; in the data, active = GI50 up to about 1.1 µM and inactive = higher.

Tests used:
Test in all cases: NCI tumour cell line growth inhibition, 48 h
DLD-1 = system: DLD-1
RXF 631 = system: RXF 631
XF498 = system: XF498
DMS-273 = system: DMS-273
HOP-18 = system: HOP-18
M19-MEL = system: M19-MEL
T47D = system: T47D
SNB-78 = system: SNB-78
MCF7 = system: MCF7

Measured: GI50

C=C(CN(C)C)C(=O)c1ccccc1
inactive: DLD-1 2.11 µM | RXF 631 24.1 µM | XF498 15.4 µM | DMS-273 13.7 µM | HOP-18 3.52 µM | M19-MEL 9.33 µM | T47D 2.25 µM | SNB-78 22.2 µM

COc1ccc2c(c1)C=C(C(C)(C)C)NS2(=O)=O
inactive: DLD-1 > 100 µM | RXF 631 > 100 µM | DMS-273 > 100 µM | HOP-18 > 100 µM | M19-MEL > 100 µM | SNB-78 > 100 µM

C=C(CN(C)C)C(=O)c1ccc(Oc2ccccc2)cc1
inactive: DLD-1 2.22 µM | RXF 631 19.3 µM | XF498 14.8 µM | MCF7 3.3 µM | DMS-273 23.6 µM | HOP-18 6.87 µM | M19-MEL 4.25 µM | T47D 2.7 µM | SNB-78 16.3 µM

CC(C)(c1ccc(C=O)o1)c1ccc(C(C)(C)c2ccc(C=O)o2)o1
inactive: RXF 631 > 100 µM | DMS-273 > 100 µM | HOP-18 > 100 µM | SNB-78 > 100 µM

N#CC(C#N)C(c1ccccc1)c1ccccc1
inactive: DLD-1 > 100 µM | RXF 631 > 100 µM | DMS-273 > 100 µM | HOP-18 > 100 µM | SNB-78 > 100 µM

Cc1cc(NCCCCCCNc2cc(C)nc3ccc(Cl)cc23)c2cc(Cl)ccc2n1
inactive: DLD-1 16.8 µM | RXF 631 > 100 µM | XF498 18.1 µM | DMS-273 20.4 µM | M19-MEL 21.4 µM | SNB-78 22.7 µM

CC1(C)CCC[C@@]2(C)C1CCC1(C)C(CCc3ccoc3)/C(=C/OS(=O)(=O)O)CCC12 (stereo not given in full)
inactive: DLD-1 34.5 µM | RXF 631 > 100 µM | XF498 > 100 µM | DMS-273 > 100 µM | HOP-18 > 100 µM | M19-MEL > 100 µM | SNB-78 45.2 µM

COc1cccc(NC(=O)C(=O)C(C(C)=O)c2nc3ccc(Cl)cc3nc2O)c1 (stereo not given)
inactive: DLD-1 > 100 µM | RXF 631 > 100 µM | DMS-273 > 100 µM | HOP-18 > 100 µM | M19-MEL > 100 µM | SNB-78 > 100 µM

CCN(CC)C(=O)COc1ccc(Br)cc1Br
inactive: DLD-1 > 100 µM | RXF 631 > 100 µM | DMS-273 > 100 µM | HOP-18 > 100 µM | M19-MEL > 100 µM | SNB-78 > 100 µM

CCCCN(CCCC)CC(C(C)=O)C(c1ccccc1)c1c(O)c2ccccc2oc1=O (stereo not given)
inactive: DLD-1 > 100 µM | RXF 631 > 100 µM | XF498 > 100 µM | DMS-273 > 100 µM | HOP-18 > 100 µM | M19-MEL > 100 µM | SNB-78 > 100 µM

N#CCc1ccc(C(C#N)/C(CCCC(=O)Nc2cccc([N+](=O)[O-])c2)=N/NC(N)=S)cc1 (stereo not given)
inactive: DLD-1 87.5 µM | RXF 631 86.5 µM | DMS-273 > 100 µM | HOP-18 > 100 µM | SNB-78 57.7 µM

CCOc1ccc(NC(=O)C2=C(C)NC(C)=C(C(=O)Nc3ccc(OCC)cc3)C2c2ccccc2)cc1
inactive: DLD-1 97.7 µM | RXF 631 > 100 µM | XF498 > 100 µM | DMS-273 > 100 µM | M19-MEL > 100 µM | SNB-78 > 100 µM

Cc1ccc(S(=O)(=O)SCc2ccccc2CSS(=O)(=O)c2ccc(C)cc2)cc1
inactive: DLD-1 15.2 µM | RXF 631 > 100 µM | XF498 24.2 µM | DMS-273 21.1 µM | HOP-18 > 100 µM | M19-MEL 23.5 µM | SNB-78 20.1 µM

CCOC(=O)C1=NC(c2ccccc2)(c2ccccc2)OC1=C(Cl)Cl
inactive: DLD-1 80.7 µM | RXF 631 50.9 µM | HOP-18 > 100 µM | M19-MEL 29 µM | SNB-78 96.4 µM

CCOC(=O)Nc1nc2cc(Cn3cccc3)ccc2[nH]1
inactive: DLD-1 3.93 µM | RXF 631 > 22.3 µM | XF498 3.5 µM | MCF7 1.7 µM | DMS-273 3.66 µM | HOP-18 4.52 µM | M19-MEL 6.37 µM | SNB-78 8.99 µM

O=C(C(=O)c1ccc(Cc2ccc(C(=O)C(=O)c3ccccc3)cc2)cc1)c1ccccc1
inactive: DLD-1 > 100 µM | RXF 631 > 100 µM | DMS-273 > 100 µM | HOP-18 > 100 µM | M19-MEL > 100 µM | SNB-78 > 100 µM

CC1(C)COC(c2cccc3c2C(=O)c2cccc(Cl)c2-3)=N1
inactive: RXF 631 74.3 µM | XF498 46.7 µM | DMS-273 51.4 µM | SNB-78 97.1 µM
